Source: PubChem BioAssay (NCI)
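Briefly, cells in 96-well plates were exposed to five compound concentrations for 48 h, and endpoints were estimated by linear interpolation. TGI: concentration producing complete growth inhibition.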

How the values were obtained:
Assay in all cases: NCI anticancer screen, dose series, 48 h
786-0 renal = test system: 786-0 renal
A498 renal = test system: A498 renal
A549 NSCLC = test system: A549 NSCLC
ACHN renal = test system: ACHN renal
CAKI-1 renal = test system: CAKI-1 renal
CCRF-CEM leukemia = test system: CCRF-CEM leukemia
DLD-1 colon = test system: DLD-1 colon
DMS 114 small cell lung = test system: DMS 114 small cell lung
DMS 273 small cell lung = test system: DMS 273 small cell lung
EKVX NSCLC = test system: EKVX NSCLC
HCC-2998 colon = test system: HCC-2998 colon
HCT-116 colon = test system: HCT-116 colon
HCT-15 colon = test system: HCT-15 colon
HL-60(TB) leukemia = test system: HL-60(TB) leukemia
HOP-18 NSCLC = test system: HOP-18 NSCLC
HOP-62 NSCLC = test system: HOP-62 NSCLC
HOP-92 NSCLC = test system: HOP-92 NSCLC
HT29 colon = test system: HT29 colon
IGROV1 ovarian = test system: IGROV1 ovarian
KM12 colon = test system: KM12 colon
KM20L2 colon = test system: KM20L2 colon
LOX IMVI melanoma = test system: LOX IMVI melanoma
LXFL 529 NSCLC = test system: LXFL 529 NSCLC
M14 melanoma = test system: M14 melanoma
M19-MEL melanoma = test system: M19-MEL melanoma
MOLT-4 leukemia = test system: MOLT-4 leukemia
NCI-H23 lung = test system: NCI-H23 lung
NCI-H460 lung = test system: NCI-H460 lung
NCI-H522 lung = test system: NCI-H522 lung
OVCAR-3 ovarian = test system: OVCAR-3 ovarian
OVCAR-4 ovarian = test system: OVCAR-4 ovarian
OVCAR-5 ovarian = test system: OVCAR-5 ovarian
OVCAR-8 ovarian = test system: OVCAR-8 ovarian
RPMI-8226 leukemia = test system: RPMI-8226 leukemia
SF-268 CNS = test system: SF-268 CNS
SF-295 CNS = test system: SF-295 CNS
SF-539 CNS = test system: SF-539 CNS
SK-MEL-28 melanoma = test system: SK-MEL-28 melanoma
SK-MEL-5 melanoma = test system: SK-MEL-5 melanoma
SK-OV-3 ovarian = test system: SK-OV-3 ovarian
SN12C renal = test system: SN12C renal
SNB-19 CNS = test system: SNB-19 CNS
SNB-75 CNS = test system: SNB-75 CNS
SNB-78 CNS = test system: SNB-78 CNS
SR leukemia = test system: SR leukemia
SW-620 colon = test system: SW-620 colon
TK-10 renal = test system: TK-10 renal
U251 CNS = test system: U251 CNS
UACC-257 melanoma = test system: UACC-257 melanoma
UACC-62 melanoma = test system: UACC-62 melanoma
UO-31 renal = test system: UO-31 renal
XF 498 CNS = test system: XF 498 CNS
COLO 205 colon = test system: COLO 205 colon
K-562 leukemia = test system: K-562 leukemia
MALME-3M melanoma = test system: MALME-3M melanoma
NCI-H226 lung = test system: NCI-H226 lung
RXF 393 renal = test system: RXF 393 renal
SK-MEL-2 melanoma = test system: SK-MEL-2 melanoma
BT-549 breast = test system: BT-549 breast
DU-145 prostate = test system: DU-145 prostate
HS 578T breast = test system: HS 578T breast
MCF7 breast = test system: MCF7 breast
MDA-MB-231 breast = test system: MDA-MB-231 breast
MDA-MB-435 = test system: MDA-MB-435
MDA-N = test system: MDA-N
NCI/ADR-RES ovarian = test system: NCI/ADR-RES ovarian
PC-3 prostate = test system: PC-3 prostate
T-47D breast = test system: T-47D breast

COC(=O)C12CC3CC(C1)CC(C(=O)OC)(C3)C2
TGI (786-0 renal): > 100 µM
TGI (A498 renal): > 100 µM
TGI (A549 NSCLC): > 100 µM
TGI (ACHN renal): > 100 µM
TGI (CAKI-1 renal): > 100 µM
TGI (CCRF-CEM leukemia): > 100 µM
TGI (DLD-1 colon): > 100 µM
TGI (DMS 114 small cell lung): > 100 µM
TGI (DMS 273 small cell lung): > 100 µM
TGI (EKVX NSCLC): > 100 µM
TGI (HCC-2998 colon): > 100 µM
TGI (HCT-116 colon): > 100 µM
TGI (HCT-15 colon): > 100 µM
TGI (HL-60(TB) leukemia): > 100 µM
TGI (HOP-18 NSCLC): > 100 µM
TGI (HOP-62 NSCLC): > 100 µM
TGI (HOP-92 NSCLC): > 100 µM
TGI (HT29 colon): > 100 µM
TGI (IGROV1 ovarian): > 100 µM
TGI (KM12 colon): > 100 µM
TGI (KM20L2 colon): > 100 µM
TGI (LOX IMVI melanoma): > 100 µM
TGI (LXFL 529 NSCLC): > 100 µM
TGI (M14 melanoma): > 100 µM
TGI (M19-MEL melanoma): > 100 µM
TGI (MOLT-4 leukemia): > 100 µM
TGI (NCI-H23 lung): > 100 µM
TGI (NCI-H460 lung): > 100 µM
TGI (NCI-H522 lung): > 100 µM
TGI (OVCAR-3 ovarian): > 100 µM
TGI (OVCAR-4 ovarian): > 100 µM
TGI (OVCAR-5 ovarian): > 100 µM
TGI (OVCAR-8 ovarian): > 100 µM
TGI (RPMI-8226 leukemia): > 100 µM
TGI (SF-268 CNS): > 100 µM
TGI (SF-295 CNS): > 100 µM
TGI (SF-539 CNS): > 100 µM
TGI (SK-MEL-28 melanoma): > 100 µM
TGI (SK-MEL-5 melanoma): > 100 µM
TGI (SK-OV-3 ovarian): > 100 µM
TGI (SN12C renal): > 100 µM
TGI (SNB-19 CNS): > 100 µM
TGI (SNB-75 CNS): > 100 µM
TGI (SNB-78 CNS): > 100 µM
TGI (SR leukemia): > 100 µM
TGI (SW-620 colon): > 100 µM
TGI (TK-10 renal): > 100 µM
TGI (U251 CNS): > 100 µM
TGI (UACC-257 melanoma): > 100 µM
TGI (UACC-62 melanoma): > 100 µM
TGI (UO-31 renal): > 100 µM
TGI (XF 498 CNS): > 100 µM

CCN(CC)CCNC(=O)c1nn(C)c(=S)[nH]c1=S
TGI (786-0 renal): > 100 µM
TGI (A549 NSCLC): > 100 µM
TGI (ACHN renal): > 100 µM
TGI (CAKI-1 renal): > 100 µM
TGI (CCRF-CEM leukemia): > 100 µM
TGI (COLO 205 colon): > 100 µM
TGI (DLD-1 colon): > 100 µM
TGI (DMS 114 small cell lung): > 100 µM
TGI (DMS 273 small cell lung): > 100 µM
TGI (EKVX NSCLC): > 100 µM
TGI (HCC-2998 colon): > 100 µM
TGI (HCT-116 colon): > 100 µM
TGI (HCT-15 colon): > 100 µM
TGI (HL-60(TB) leukemia): > 100 µM
TGI (HOP-18 NSCLC): > 100 µM
TGI (HOP-62 NSCLC): > 100 µM
TGI (HOP-92 NSCLC): > 100 µM
TGI (HT29 colon): > 100 µM
TGI (IGROV1 ovarian): > 100 µM
TGI (K-562 leukemia): > 100 µM
TGI (KM12 colon): > 100 µM
TGI (KM20L2 colon): > 100 µM
TGI (LOX IMVI melanoma): > 100 µM
TGI (LXFL 529 NSCLC): > 100 µM
TGI (M14 melanoma): > 100 µM
TGI (M19-MEL melanoma): > 100 µM
TGI (MALME-3M melanoma): > 100 µM
TGI (MOLT-4 leukemia): > 100 µM
TGI (NCI-H226 lung): > 100 µM
TGI (NCI-H23 lung): > 100 µM
TGI (NCI-H460 lung): > 100 µM
TGI (NCI-H522 lung): > 100 µM
TGI (OVCAR-3 ovarian): > 100 µM
TGI (OVCAR-4 ovarian): > 100 µM
TGI (OVCAR-5 ovarian): > 100 µM
TGI (OVCAR-8 ovarian): > 100 µM
TGI (RPMI-8226 leukemia): > 100 µM
TGI (RXF 393 renal): > 100 µM
TGI (SF-295 CNS): > 100 µM
TGI (SF-539 CNS): > 100 µM
TGI (SK-MEL-2 melanoma): > 100 µM
TGI (SK-MEL-28 melanoma): > 100 µM
TGI (SK-MEL-5 melanoma): > 100 µM
TGI (SK-OV-3 ovarian): > 100 µM
TGI (SN12C renal): > 100 µM
TGI (SNB-19 CNS): > 100 µM
TGI (SNB-75 CNS): > 100 µM
TGI (SNB-78 CNS): > 100 µM
TGI (SR leukemia): > 100 µM
TGI (SW-620 colon): > 100 µM
TGI (TK-10 renal): > 100 µM
TGI (U251 CNS): > 100 µM
TGI (UACC-257 melanoma): > 100 µM
TGI (UACC-62 melanoma): > 100 µM
TGI (UO-31 renal): > 100 µM
TGI (XF 498 CNS): > 100 µM

Cc1ccc(C(=O)C(Cl)C(Cl)c2ccc(C)cc2)cc1 (configuration not stated)
TGI (786-0 renal): 4.61 µM
TGI (A498 renal): 30 µM
TGI (A549 NSCLC): > 91.8 µM
TGI (ACHN renal): 3.13 µM
TGI (BT-549 breast): 9.2 µM
TGI (CAKI-1 renal): 5.53 µM
TGI (CCRF-CEM leukemia): 4.28 µM
TGI (COLO 205 colon): 4.1 µM
TGI (DU-145 prostate): 15.3 µM
TGI (EKVX NSCLC): 19.5 µM
TGI (HCC-2998 colon): 3.92 µM
TGI (HCT-116 colon): 4 µM
TGI (HCT-15 colon): 3.73 µM
TGI (HL-60(TB) leukemia): 10 µM
TGI (HOP-62 NSCLC): 45.4 µM
TGI (HOP-92 NSCLC): 5.24 µM
TGI (HS 578T breast): 76.3 µM
TGI (HT29 colon): 4.31 µM
TGI (IGROV1 ovarian): 6.34 µM
TGI (K-562 leukemia): 7.15 µM
TGI (KM12 colon): 13.9 µM
TGI (LOX IMVI melanoma): 3.78 µM
TGI (M14 melanoma): 35.5 µM
TGI (MALME-3M melanoma): 32.1 µM
TGI (MCF7 breast): 18.6 µM
TGI (MDA-MB-231 breast): 16.1 µM
TGI (MDA-MB-435): 10.8 µM
TGI (MDA-N): 6.18 µM
TGI (MOLT-4 leukemia): 6.67 µM
TGI (NCI-H226 lung): 11.4 µM
TGI (NCI-H23 lung): 23.9 µM
TGI (NCI-H460 lung): 22.3 µM
TGI (NCI-H522 lung): 10.7 µM
TGI (NCI/ADR-RES ovarian): 6.15 µM
TGI (OVCAR-3 ovarian): 11.2 µM
TGI (OVCAR-4 ovarian): 5.04 µM
TGI (OVCAR-5 ovarian): 33 µM
TGI (OVCAR-8 ovarian): 7.7 µM
TGI (PC-3 prostate): 18.4 µM
TGI (RPMI-8226 leukemia): 7.25 µM
TGI (RXF 393 renal): 23.4 µM
TGI (SF-268 CNS): 21.2 µM
TGI (SF-295 CNS): 23.7 µM
TGI (SF-539 CNS): 6.38 µM
TGI (SK-MEL-2 melanoma): 36.2 µM
TGI (SK-MEL-28 melanoma): 8.68 µM
TGI (SK-MEL-5 melanoma): 6.68 µM
TGI (SK-OV-3 ovarian): 30.7 µM
TGI (SN12C renal): 3.88 µM
TGI (SNB-19 CNS): 23.3 µM
TGI (SNB-75 CNS): 23 µM
TGI (SR leukemia): 6.68 µM
TGI (SW-620 colon): 6.32 µM
TGI (T-47D breast): 4.86 µM
TGI (TK-10 renal): 8.13 µM
TGI (U251 CNS): 12.4 µM
TGI (UACC-257 melanoma): 4.48 µM
TGI (UACC-62 melanoma): 10.9 µM
TGI (UO-31 renal): 3.73 µM
